Drawing on patent US6492384B1, “Imidazo (4,5-C) pyridine-4-one derivatives with factor XA inhibiting effect” (Merck Patent GmbH, priority 1998, dated 2002), this text covers melting point for 4 compounds.

A word on the melting point: it is the temperature of the solid-liquid transition. `Cc1nc(-c2ccc3ccc(Cn4ccc5nc(C(C)C)n(Cc6ccc7ccc(-c8noc(C)n8)cc7c6)c5c4=O)cc3c2)no1` [BC2, 2-isopropyl-3-[7-(5-methyl[1,2,4]oxadiazol-3-yl)naphth-2-ylmethyl]-5-[7-(5-methyl[1,2,4]oxadiazol-3-yl)naphth-2-ylmethyl]-3,5-dihydroimidazo[4,5-c]pyridin-4-one] gave a melting point of 201 to 202 °C.

For `Cc1nc(-c2ccc(Cn3ccc4nc(C(C)C)n(Cc5ccc6ccc(-c7noc(C)n7)cc6c5)c4c3=O)cc2)no1` [BC3, 2-isopropyl-3-[7-(5-methyl[1,2,4]oxadiazol-3-yl)naphth-2-ylmethyl]-5-[4-(5-methyl[1,2,4]oxadiazol-3-yl)benzyl]-3,5-dihydroimidazo[4,5-c]pyridin-4-one], the melting point lay in the range of 172 to 173 °C.

Compound `Cc1nc(-c2ccc3ccc(Cn4c(C(C)C)nc5ccn(Cc6ccccc6-c6noc(C)n6)c(=O)c54)cc3c2)no1` [BC4, 2-isopropyl-3-[7-(5-methyl[1,2,4]oxadiazol-3-yl)naphth-2-ylmethyl]-5-[2-(5-methyl[1,2,4]oxadiazol-3-yl)benzyl]-3,5-dihydroimidazo[4,5-c]pyridin-4-one] had a melting point of 149 to 150 °C.

`Cc1nc(-c2ccc3ccc(Cn4c(C(C)C)nc5ccn(Cc6ccccc6)c(=O)c54)cc3c2)no1` [BC5, 2-isopropyl-3-[7-(5-methyl[1,2,4]oxadiazol-3-yl)naphth-2-ylmethyl]-5-benzyl-5H-imidazo[4,5-c]pyridin-4-one] showed a melting point of 112 to 113 °C.
